Source: patent publication US4048299A, “Anticaries confectionaries and oral health products” (William Wrigley, Jr. Co., priority 1970, dated 1977)

Assays:
[1] = tested on: Mixed Oral Microorganisms; test: Acid production inhibition, broth-tube technique; conditions: single agent
From the text: The data was compiled through well-known broth tube analysis techniques.
(a)Measured by broth-tube technique.

[2] = In vivo caries evaluation, albino hamster; conditions: Table I, 56 days
From the text: (§1) Standard laboratory techniques were used to complie the data presented. In each case the aldehyde was incorporated into each specimen's food in a one percent, by weight, quantity, over a period of several weeks. In all cases, caries reduction was noted.
(§2) The aldehydes tested in vivo were pyruvaldehyde, d,1-glyceraldehyde, crystalline dimer, glycolaldehyde, octanaldehyde, nonanaldehyde, decanaldehyde, undecylenic aldehyde, and lauric aldehyde. The polyaldehydes tested were dialdehyde starch, dialdehyde starch 50 percent oxidized, dialdehyde starch 90 percent oxidized, and dialdehyde galactomannan gum.
(§3) ^(a) Agents were incorporated in the diet at a 1 percent level.

[3] = tested on: Mixed human oral microorganisms; test: Acid production inhibition by aldehydes in product vehicles, broth-tube technique; type: cell-based; conditions: 1 to 5 percent aldehyde
[4] = tested on: Streptococcus spp. KI-R; test: as above; type: cell-based; conditions: 1 to 5 percent aldehyde
[5] = In vivo caries evaluation, Osborne-Mendel strain 2 rat; design: species or system rat (Osborne-Mendel strain 2); conditions: Table I; 90 days; Student's test, 95 percent confidence limit
From the text: as §1, §2, §3

[6] = Student's test, 95 percent confidence limit
[7] = in compressed candy tablet, 2 h incubation
[8] = in compressed candy tablet, 5 h incubation
[9] = in compressed candy tablet, 24 h incubation
[10] = in dextrose syrup, 2 h incubation
[11] = in dextrose syrup, 5 h incubation
[12] = in dextrose syrup, 24 h incubation
[13] = in sucrose syrup, 2 h incubation
[14] = in sucrose syrup, 5 h incubation
[15] = in sucrose syrup, 24 h incubation
[16] = in tooth powder (aqueous extract), 2 h incubation
[17] = in tooth powder (aqueous extract), 5 h incubation
[18] = in tooth powder (aqueous extract), 24 h incubation
[19] = in toothpaste (aqueous extract), 2 h incubation
[20] = in toothpaste (aqueous extract), 5 h incubation
[21] = in toothpaste (aqueous extract), 24 h incubation

O=C[C@H](O)CO (racemic) [d,1-Glyceraldehyde]
Acid Production Inhibition ([1]; 0.03 percent): 7% | Acid Production Inhibition ([1]; 0.04 percent): 12% | Acid Production Inhibition ([1]; 0.05 percent): 19% | Acid Production Inhibition ([1]; 0.06 percent): 30% | Acid Production Inhibition ([1]; 0.07 percent): 40% | Caries Score, Mean Incidence ([2]; 1 percent in diet, L-2000 control 27.5): 8.0 | Caries Score, Mean Extent ([2]; 1 percent in diet, L-2000 control 80.9): 21.8 | Caries Extent Reduction, statistical evaluation [2, 6]: Significant | Caries Incidence Reduction, statistical evaluation [2, 6]: Significant | Acid Production Inhibition [3, 7]: 0 Per Cent | Acid Production Inhibition [3, 8]: 91 Per Cent | Acid Production Inhibition [3, 9]: 87 Per Cent | Acid Production Inhibition [3, 10]: 8 Per Cent | Acid Production Inhibition [3, 11]: 90 Per Cent | Acid Production Inhibition [3, 12]: 77 Per Cent | Acid Production Inhibition ([3]; in mouthwash, 2 h incubation): 0 Per cent | Acid Production Inhibition ([3]; in mouthwash, 5 h incubation): 91 Per cent | Acid Production Inhibition ([3]; in mouthwash, 24 h incubation): 39 Per cent | Acid Production Inhibition [3, 13]: 72 Per cent | Acid Production Inhibition [3, 14]: 93 Per cent | Acid Production Inhibition [3, 15]: 16 Per cent | Acid Production Inhibition [3, 16]: 0 Per cent | Acid Production Inhibition [3, 17]: 48 Per cent | Acid Production Inhibition [3, 18]: 18 Per cent | Acid Production Inhibition [3, 19]: 0 Per cent | Acid Production Inhibition [3, 20]: 0 Per cent | Acid Production Inhibition [3, 21]: 0 Per cent | Acid Production Inhibition [4, 7]: 0 Per Cent | Acid Production Inhibition [4, 8]: 25 Per Cent | Acid Production Inhibition [4, 9]: 84 Per Cent | Acid Production Inhibition [4, 10]: 48 Per Cent | Acid Production Inhibition [4, 11]: 86 Per Cent | Acid Production Inhibition [4, 12]: 82 Per Cent | Acid Production Inhibition ([4]; in mouthwash, 2 h incubation): 0 Per cent | Acid Production Inhibition ([4]; in mouthwash, 5 h incubation): 0 Per cent | Acid Production Inhibition ([4]; in mouthwash, 24 h incubation): 86 Per cent | Acid Production Inhibition [4, 13]: 69 Per cent | Acid Production Inhibition [4, 14]: 88 Per cent | Acid Production Inhibition [4, 15]: 86 Per cent | Acid Production Inhibition [4, 16]: 0 Per cent | Acid Production Inhibition [4, 17]: 0 Per cent | Acid Production Inhibition [4, 18]: 0 Per cent | Acid Production Inhibition [4, 19]: 0 Per cent | Acid Production Inhibition [4, 20]: 0 Per cent | Acid Production Inhibition [4, 21]: 0 Per cent

O=CCO [Glycolaldehyde]
Caries Extent Reduction, statistical evaluation [5]: Significant | Acid Production Inhibition [3, 7]: 0 Per Cent | Acid Production Inhibition [3, 8]: 84 Per Cent | Acid Production Inhibition [3, 9]: 72 Per Cent | Acid Production Inhibition [3, 10]: 15 Per Cent | Acid Production Inhibition [3, 11]: 87 Per Cent | Acid Production Inhibition [3, 12]: 87 Per Cent | Acid Production Inhibition ([3]; in mouthwash, 2 h incubation): 0 Per cent | Acid Production Inhibition ([3]; in mouthwash, 5 h incubation): 87 Per cent | Acid Production Inhibition ([3]; in mouthwash, 24 h incubation): 80 Per cent | Acid Production Inhibition [3, 13]: 44 Per cent | Acid Production Inhibition [3, 14]: 90 Per cent | Acid Production Inhibition [3, 15]: 85 Per cent | Acid Production Inhibition [3, 16]: 0 Per cent | Acid Production Inhibition [3, 17]: 82 Per cent | Acid Production Inhibition [3, 18]: 77 Per cent | Acid Production Inhibition [3, 19]: 0 Per cent | Acid Production Inhibition [3, 20]: 0 Per cent | Acid Production Inhibition [3, 21]: 0 Per cent | Acid Production Inhibition [4, 7]: 0 Per Cent | Acid Production Inhibition [4, 8]: 0 Per Cent | Acid Production Inhibition [4, 9]: 73 Per Cent | Acid Production Inhibition [4, 10]: 57 Per Cent | Acid Production Inhibition [4, 11]: 81 Per Cent | Acid Production Inhibition [4, 12]: 77 Per Cent | Acid Production Inhibition ([4]; in mouthwash, 2 h incubation): 0 Per cent | Acid Production Inhibition ([4]; in mouthwash, 5 h incubation): 0 Per cent | Acid Production Inhibition ([4]; in mouthwash, 24 h incubation): 78 Per cent | Acid Production Inhibition [4, 13]: 19 Per cent | Acid Production Inhibition [4, 14]: 85 Per cent | Acid Production Inhibition [4, 15]: 84 Per cent | Acid Production Inhibition [4, 16]: 0 Per cent | Acid Production Inhibition [4, 17]: 0 Per cent | Acid Production Inhibition [4, 18]: 0 Per cent | Acid Production Inhibition [4, 19]: 0 Per cent | Acid Production Inhibition [4, 20]: 0 Per cent | Acid Production Inhibition [4, 21]: 0 Per cent
